Reference: patent US20040092890A1, “Catheter lock solution including a photo-oxidant” (priority 2003, published 2004)

How the values were obtained:
Enterobacter Faecalis = experiment: Effect of methylene blue on concentration of a gram positive organism without light exposure (FIG. 3); assay type: cell-based
Description: FIG. 3 is a representation of the effect of methylene blue (12 mg/100 ml) on concentration of a gram positive organism, Enterobacter Faecalis, without light exposure.
(§1) In a series of tests, with a gram negative and a gram positive organism, methylene blue inactivated all bacteria within 1 day, while heparin and a 4% concentration of citrate caused no effect on gram positive organisms (FIGS. 2, 3). Methylene blue also advantageously colors the lock solution blue, which provides a useful tool to medical personnel in preventing confusion between the lock solution and any other solution that might be present in a syringe or the catheter.
FIG. 3 is a representation of the effect of methylene blue (12 mg/100 ml) on concentration of a gram positive organism, Enterobacter Faecalis, without light exposure. […] It is expected that illumination will augment bacterial killing by methylene blue even more.

gram-negative organisms = experiment: Killing of gram-negative organisms by methylene blue 0.01%; conditions: methylene blue 0.01% (10 mg/100 mL)
Escherichia Coli = experiment: Effect of methylene blue on concentration of a gram negative organism without light exposure (FIG. 2); assay type: cell-based
Description: FIG. 2 is a graph depicting the effect of methylene blue (12 mg/100 ml) on concentration of a gram negative organism, Escherichia Coli, without light exposure.
as §1
FIG. 2 is a representation of the effect of methylene blue (12 mg/100 ml) on concentration of a gram negative organism, Escherichia Coli, without light exposure. […] It is expected that illumination will augment bacterial killing by methylene blue even more.

[1] = Relative density of citrate solutions (FIG. 6); assay type: physicochemical
Description: It is of course understood that the densities of citrate solutions increase as the concentrations of citrate therein increase.
The densities of various formulations of various catheter lock solutions are directly related to the citrate concentration, as reflected in the linear graph set forth in FIG. 6.

gram negative bacteria = conditions: large numbers of bacteria; cited from earlier work
[2] = methylene blue 12 mg/100 ml, without light exposure

What does the source list for CN(C)c1ccc2nc3ccc(=[N+](C)C)cc-3sc2c1 [methylene blue]?
Time to inactivate all bacteria (Enterobacter Faecalis; gram positive organism): ≤ 1 days; Killing of Enterobacter Faecalis (Enterobacter Faecalis; [2]): All Enterobacter are killed within one day; Killing of gram-negative organisms (gram-negative organisms): kill gram-negative organisms within one day; Time to inactivate all bacteria (Escherichia Coli; gram negative organism): ≤ 1 days; Killing of E. Coli (Escherichia Coli; [2]): All E. Coli are killed within one day

Which results are given for O=C(O)CC(O)(CC(=O)O)C(=O)O [citrate]?
Relative density ([1]; 23% citrate): 1.120; Relative density ([1]; citrate concentration of 0.24M): about 1.045; Effect on gram positive organisms (Enterobacter Faecalis; 4% concentration of citrate): no effect; Time until all gram negative bacteria are killed (gram negative bacteria): 1 to 7 days

Which “Effect on gram positive organisms” value (Enterobacter Faecalis; heparin) does the source give for heparin here?
Its value is “no effect”.
